Source: patent US8865623B2, “Herbicidally active cyclic diones and derivatives thereof, processes for their preparation, compositions, and method of controlling weeds” (Syngenta Limited, priority 2009, dated 2014)

Key:
Format in all cases: in vivo
Lolium perenne (LOLPE) [1] = assay: Pre-emergence herbicidal activity, glasshouse pot test; details: Lolium perenne, 312 h; Rate 250 g/ha; pre-emergence spray; evaluated after 13 days; read-out: Pre-emergence activity LOLPE (100=total damage to plant; 0=no damage to plant)
Method in brief: (§1)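 Plants in standard-soil pots, glasshouse at 24/16° C, 14 h photoperiod, 65% humidity. Aqueous spray (acetone/water 50:50 formulation, 0.5% Tween 20) applied pre-emergence at day 1 or post-emergence at day 8. Percent damage recorded after 13 days.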

[2] = system: Alopecurus myosuroides (ALOMY); assay: as above; details: Alopecurus myosuroides, 312 h; Rate 250 g/ha; pre-emergence spray; evaluated after 13 days; read-out: Pre-emergence activity ALOMY (100=total damage to plant; 0=no damage to plant)
Method in brief: as §1

Avena fatua (AVEFA) [3] = assay: as above; details: Avena fatua, 312 h; Rate 250 g/ha; pre-emergence spray; evaluated after 13 days; read-out: Pre-emergence activity AVEFA (100=total damage to plant; 0=no damage to plant)
Method in brief: as §1

[4] = system: Echinochloa crus-galli (ECHCG); assay: as above; details: Echinochloa crus-galli, 312 h; Rate 250 g/ha; pre-emergence spray; evaluated after 13 days; read-out: Pre-emergence activity ECHCG (100=total damage to plant; 0=no damage to plant)
Method in brief: as §1

Lolium perenne (LOLPE) [5] = assay: Post-emergence herbicidal activity, glasshouse pot test; details: Lolium perenne, 312 h, rate 250 g/ha, evaluated after 13 days, glasshouse, read-out: Post-emergence activity LOLPE (100=total damage to plant; 0=no damage to plant)
Method in brief: as §1

[6] = system: Alopecurus myosuroides (ALOMY); assay: as above; details: Alopecurus myosuroides, 312 h, rate 250 g/ha, evaluated after 13 days, glasshouse, read-out: Post-emergence activity ALOMY (100=total damage to plant; 0=no damage to plant)
Method in brief: as §1

Avena fatua (AVEFA) [7] = assay: as above; details: Avena fatua, 312 h, rate 250 g/ha, evaluated after 13 days, glasshouse, read-out: Post-emergence activity AVEFA (100=total damage to plant; 0=no damage to plant)
Method in brief: as §1

[8] = system: Echinochloa crus-galli (ECHCG); assay: as above; details: Echinochloa crus-galli, 312 h, rate 250 g/ha, evaluated after 13 days, glasshouse, read-out: Post-emergence activity ECHCG (100=total damage to plant; 0=no damage to plant)
Method in brief: as §1

Compound	pest or weed control at 250 g/ha (Lolium perenne (LOLPE) [1])	pest or weed control at 250 g/ha [2]	pest or weed control at 250 g/ha (Avena fatua (AVEFA) [3])	pest or weed control at 250 g/ha [4]	pest or weed control at 250 g/ha (Lolium perenne (LOLPE) [5])	pest or weed control at 250 g/ha [6]	pest or weed control at 250 g/ha (Avena fatua (AVEFA) [7])	pest or weed control at 250 g/ha [8]
CCc1ccc(Oc2ccc(C#N)cc2C(F)(F)F)cc1C1=C(O)CC2(CCOCC2)CC1=O [Example A-306]	70%	60%	0%	100%	60%	70%	80%	100%
CCc1ccc(Oc2cnc3ccccc3n2)cc1C1=C(O)CC2(CCOCC2)CC1=O [Example A-307]	90%	100%	70%	100%	100%	100%	100%	100%
CCc1ccc(Oc2nc3cc(Cl)ccc3s2)cc1C1=C(O)CC2(CCOCC2)CC1=O [Example A-308]	70%	90%	80%	100%	100%	90%	100%	100%
CCc1ccc(Oc2ccc([N+](=O)[O-])cc2C(F)(F)F)cc1C1=C(O)CC2(CCOCC2)CC1=O [Example A-309]	20%	40%	0%	70%	50%	50%	70%	100%
CCc1ccc(Oc2ncc(Br)cn2)cc1C1=C(O)CC2(CCOCC2)CC1=O [Example A-310]	70%	100%	50%	100%	90%	100%	80%	100%
CCc1ccc(Oc2cnc3cc(F)ccc3n2)cc1C1=C(O)CC2(CCOCC2)CC1=O [Example A-311]	100%	90%	100%	100%	100%	100%	100%	100%
CC1(C)OC(C)(C)C(O)=C(c2cc(Oc3ccc4cc(Cl)ccc4n3)ccc2C2CC2)C1=O [Example A-312]	100%	70%	70%	100%	100%	100%	100%	100%
CCc1ccc(Oc2ccc(C#N)c(Cl)c2)cc1C1=C(O)[C@@H]2CC[C@](C)(C1=O)C2(C)C [Example A-313]	100%	80%	70%	100%	80%	90%	90%	100%
CCc1ccc(Oc2ccc(C(F)(F)F)cc2Cl)cc1C1=C(O)[C@@H]2CC[C@](C)(C1=O)C2(C)C [Example A-314]	100%	30%	20%	100%	70%	40%	70%	100%
CCc1ccc(Oc2ccc(C(F)(F)F)c(Cl)c2)cc1C1=C(O)[C@@H]2CC[C@](C)(C1=O)C2(C)C [Example A-315]	100%	80%	60%	100%	90%	40%	80%	90%
CCc1ccc(Oc2ccc([N+](=O)[O-])c(Cl)c2)cc1C1=C(O)[C@@H]2CC[C@](C)(C1=O)C2(C)C [Example A-316]	100%	70%	60%	100%	40%	50%	80%	100%
CCc1ccc(Oc2ncc(C(F)(F)F)cc2Cl)cc1C1=C(O)[C@@H]2CC[C@](C)(C1=O)C2(C)C [Example A-317]	100%	100%	100%	100%	100%	100%	100%	100%
CCc1ccc(Oc2ncc(Cl)cc2Cl)cc1C1=C(O)[C@@H]2CC[C@](C)(C1=O)C2(C)C [Example A-318]	100%	90%	90%	100%	100%	90%	90%	100%
CCc1ccc(Oc2nc3ccccc3s2)cc1C1=C(O)[C@@H]2CC[C@](C)(C1=O)C2(C)C [Example A-319]	100%	90%	70%	100%	100%	100%	100%	100%
CCc1ccc(Oc2nc3ccc(Cl)cc3s2)cc1C1=C(O)[C@@H]2CC[C@](C)(C1=O)C2(C)C [Example A-320]	100%	80%	80%	100%	90%	100%	100%	100%
CCc1ccc(Oc2ccc3ccccc3n2)cc1C1=C(O)[C@@H]2CC[C@](C)(C1=O)C2(C)C [Example A-321]	90%	70%	50%	100%	90%	90%	90%	100%
CCc1ccc(Oc2nc3cc(Cl)ccc3s2)cc1C1=C(O)[C@@H]2CC[C@](C)(C1=O)C2(C)C [Example A-322]	100%	60%	40%	100%	90%	90%	80%	100%
CCc1ccc(Oc2ccc(C(F)(F)F)c(C#N)c2)cc1C1=C(O)[C@@H]2CC[C@](C)(C1=O)C2(C)C [Example A-323]	100%	70%	80%	100%	70%	60%	80%	90%
CCc1ccc(Oc2ncc(C(F)(F)F)cc2C(F)(F)F)cc1C1=C(O)[C@@H]2CC[C@](C)(C1=O)C2(C)C [Example A-324]	100%	90%	90%	100%	100%	100%	100%	100%
CCc1ccc(Oc2nc3ccc([N+](=O)[O-])cc3s2)cc1C1=C(O)[C@@H]2CC[C@](C)(C1=O)C2(C)C [Example A-325]	90%	60%	20%	100%	40%	50%	30%	100%
CCc1ccc(Oc2nc3ccc(OC)cc3s2)cc1C1=C(O)[C@@H]2CC[C@](C)(C1=O)C2(C)C [Example A-326]	90%	30%	10%	70%	90%	30%	90%	100%
